# Assay results from US20110028383A1, “Activated Forms Of Notch And Methods Based Thereon” (priority 1997, published 2011).
# Entries after “also recorded” stand apart in the source; their conditions may differ.
# What was measured:
# [1] = system: Drosophila Notch N^EC/N^TM heterodimer; test: Tethering of N^EC to N^TM in Notch expressing S2 cells (supernatant Western blot, sucrose density centrifugation); assay type: cell-based; conditions: for dissociation of N^EC and N^TM: calcium ion chelators
# Experimental: Briefly, Drosophila S2 cells were induced to express Notch with the addition of 0.7 mM CuSO4 for 16 hours; Notch expression was under the control of the metallothionien promoter (Fehon et al., 1990, Cell 61:523-534). The cells were washed once with 20 mM Tris-HCl, 150 mM NaCl, 2 mM CaCl2 (TBS/Ca^2+) and were resuspended in TBS/Ca^2+ or in 20 mM Tris-HCl, 150 mM NaCl. 2 mM EDTA (TBS/EDTA) and incubated for one hour at room temperature under slow rocking. The cells were centrifuged and pelleted and the supernatants were collected for SDS-PAGE and Western blot analysis. The blot was probed with a monoclonal antibody directed to the extracellular domain of Notch, specifically against EGF-like repeats 5-7 of Drosophila Notch (clone C461.3B). This monoclonal was detected using goat anti-mouse horseradish peroxidase secondary antibody and chemiluminescent substrate.
# The extracts were sedimented through a 5-20% sucrose gradient in the above-respective buffers (without the protease inhibitors) in a Beckman SW50.1 rotor at 34,000 rpm for 16 hours at 4° C. Fractions were collected and precipitated with 10% trichloroacetic acid. The protein pellets were resuspended in SDS-PAGE sample buffer and analyzed by SDS-PAGE and Western blotting. Blots were probed with a mixture of monoclonal antibodies C461.3B and 9C6 (directed against the intracellular domain of Notch) and detected as described above.
# human Notch2 = test: Pulse chase labeling of Notch2 processing in SJ-NB5 cells; assay type: cell-based; conditions: for breakdown (cleavage, processing) of full-length Notch: [35S] pulse 20 min and chase at 37° C., immunoprecipitated by PGHN, Brefeldin A 10 μg/ml; for appearance of N^EC: pulse labeling
# Experimental: SJ-NB5 cells were grown on 60 mm petri dishes until ˜80% confluent, washed once with PBS, and then incubated in methionine and cysteine free DMEM medium for 1 hr. 100 μCi^35S-translabled Met-Cys (ICN) was added to each plate, pulsed at 37° C. for 20 minutes, and chased for varying times and temperatures. The chase began by adding 2× volume complete medium plus 100 μg/ml cold methionine and cysteine to the plates. For Brefeldin A samples, Brefeldin A was maintained at a final concentration of 10 μg/ml in starvation medium as well as in both pulse and chase. Cells were washed with cold PBS and lysed in lysis buffer (Zagouras et al., 1995, Proc. Natl. Acad. Sci. USA 92:6414-6418) containing 1 mM Pefabloc SC, 0.7 μg/mlpepstatin A, and 0.5 μg/ml leupeptin. Cell lysates were centrifuged at 14,000 rpm for 5 minutes. The supernatants were transferred to fresh tubes and pre-cleared by incubating with 5 μl normal rabbit serum and 50 μl 10% protein A-sephrose CL-4B (Pharmacia LKB) for 1 hr at 4° C. The beads were pelleted by centrifugation and the supernatants were divided into two equal aliquots. One aliquot was immunoprecipitated by incubating with rabbit polyclonal anti-human Notch2 antibody PGHN and 50 μl protein A-sephrose CL-4B for 2-3 hrs or overnight at 4° C. The other aliquot was immunoprecipitated by normal rabbit serum as control. The beads were washed three times in RIPA buffer B (150 mM NaCl, 1% NP40, 0.5% DOC, 0.1% SDS, 50 mM Tris, pH 7.5); washed once in 50 mM Tris-Cl, 150 mM NaCl, pH 7.5; resuspended in 50 μl SDS-sample buffer; boiled; and subjected to a 3-15% gradient SDS-PAGE. The gel was fixed in 25% iso-propanol, 10% acetic acid for 30 minutes, soaked in Amplify™ (Amersham) for 15-30 minutes, dried, and exposed to X-ray film at −70° C.
# In an attempt to determine the cellular compartment where Notch is cleaved, pulse labeling analyses were carried out in the presence of drugs that are known to interfere with cellular trafficking.
# Notch/Delta = test: Co-immunoprecipitation of N^TM with Delta antibodies after Notch/Delta cell aggregation; assay type: cell-based, Drosophila; conditions: aggregation disrupted by depleting calcium from the medium; data not shown
# Experimental: Human neuroblastoma (SJ-NB5) cells were grown at 37° C. in an atmosphere of 5% CO2/95% air, in RPMI (Gibco-BRL, Grand Island, N.Y.) supplemented with 10% fetal bovine serum (Gibco BRL, Grand Island, N.Y.), 2 mM L-Glutamine (ICN Biomedicals, Inc., Costa Mesa, Calif.), 100 μg/ml penicillin, and 100 μg/ml streptomycin (ICN Biomedicals, Inc., Costa Mesa, Calif.). Cells were dissociated using phosphate buffered saline (PBS) with 0.25% trypsin and 0.03% EDTA (J. T. Baker, Inc., Phillipsburg, N.J.), and subcultured at ratios of 1:3 to 1:10. HaCat Cells (cultured human keratinocytes) were a gift from Dr. Michael Reiss (Yale University). Aggregation experiments and the maintenance of Drosophila S2 and KC cells were as described in Fehon et al., 1990, Cell 61:523-534.
# The biological significance of the heterodimeric Notch form would be questionable if it could not bind ligands. […] If the heterodimeric form interacts with Delta after aggregation then the 110 kd N^TM fragment should co-immunoprecipitate using Delta antibodies.
compound,measurement,setting,value
"O[C@H](CS)[C@H](O)CS (racemic) [dithiothreitol (DTT), dithiothreitol]",sensitivity of the N^EC/N^TM interaction to reducing agents,[1],sensitive
C[C@H]1CCC/C=C/[C@@H]2C[C@H](O)C[C@H]2[C@H](O)/C=C/C(=O)O1 [Brefeldin A],"breakdown (cleavage, processing) of full-length Notch",human Notch2,effectively blocks the breakdown of full-length Notch; also recorded: blocked; also recorded: inhibit the cleavage of Notch
same,appearance of N^EC,human Notch2,is inhibited
O=C(O)CN(CCN(CC(=O)O)CC(=O)O)CC(=O)O [EDTA],N^EC in the supernatant of Notch expressing S2 cells,"[1]; 2 mM EDTA, Tris-HCl saline buffer, one hour at room temperature, Western blot",N^EC is present in the supernatant
same,sedimentation of N^EC and N^TM in sucrose density centrifugation,"[1]; S2 cell extracts, TBS/EDTA with 1% Triton X-100, 5-20% sucrose gradient",sediment separately
same,dissociation of N^EC and N^TM,[1],dissociate
O=C(O)CN(CCOCCOCCN(CC(=O)O)CC(=O)O)CC(=O)O [EGTA],precipitation of N^TM by Delta antibodies,Notch/Delta,fail to efficiently precipitate N^TM
same,dissociation of N^EC and N^TM,[1],dissociate
CCN(CC)CCCC(C)Nc1ccnc2cc(Cl)ccc12 (stereo not shown) [chloraquinone],"breakdown (cleavage, processing) of full-length Notch",human Notch2,do not affect processing
same,appearance of N^EC,human Notch2,not inhibited
CC[C@@]1([C@@H]2O[C@@H]([C@H]3O[C@@](O)(CO)[C@H](C)C[C@@H]3C)C[C@@H]2C)CC[C@H]([C@]2(C)CC[C@]3(C[C@H](O)[C@@H](C)[C@@H]([C@@H](C)[C@@H](OC)[C@H](C)C(=O)O)O3)O2)O1 [monensin],"breakdown (cleavage, processing) of full-length Notch",human Notch2,do not affect processing
same,appearance of N^EC,human Notch2,not inhibited
OCCS [β-mercaptoethanol],sensitivity of the N^EC/N^TM interaction to reducing agents,[1],sensitive
